From patent US11746087B1, “C4-carboxylic acid-substituted tryptamine derivatives and methods of using” (priority 2022, dated 2023)

Assay: Dosing solution concentration by LC-MS (measured vs nominal)
Type: physicochemical
Conditions: C(IV) nominal 0.1 mg/mL
Procedure: Briefly, the procedure was as follows. […] 19, 2022.
Pharmacokinetic (PK) evaluations were performed in the same manner as described in Example 1, except compound C(IV) was used in place of compound C(V). […] Thus, only psilocin PK analysis was performed. […] Table 46 summarizes these “measured” concentrations along with corresponding “nominal” concentrations for each dosing solution. Results for psilocin PK following C(IV) administration are found in Tables 47A-47B (0.293 mg/kg IV dose), Tables 48A-48B (0.275 mg/kg oral dose), Tables 49A-49B (0.789 mg/kg oral dose), Tables 50A-50B (2.52 mg/kg oral dose), Table 51 (comparative summary for IV data), Table 52 (comparative summary for oral data), Table 53A (psilocin exposure) and FIGS. 10H (i) and 10H (ii).

In the case of `CN(C)CCc1c[nH]c2cccc(OC(=O)CC3CC3)c12` [C(IV)], the “Psilocin, measured, in C(IV) residual dosing solution” value is reported as 0.00174 mg/mL.
